From patent US20240299385A1 (ReWind Therapeutics NV, priority 2021, published 2024) come the findings set out here.

Each structure is given as a SMILES string.

As a reminder, the IC50 is the concentration that gives 50% inhibition.

T1 sequence (Q13304 whole entry): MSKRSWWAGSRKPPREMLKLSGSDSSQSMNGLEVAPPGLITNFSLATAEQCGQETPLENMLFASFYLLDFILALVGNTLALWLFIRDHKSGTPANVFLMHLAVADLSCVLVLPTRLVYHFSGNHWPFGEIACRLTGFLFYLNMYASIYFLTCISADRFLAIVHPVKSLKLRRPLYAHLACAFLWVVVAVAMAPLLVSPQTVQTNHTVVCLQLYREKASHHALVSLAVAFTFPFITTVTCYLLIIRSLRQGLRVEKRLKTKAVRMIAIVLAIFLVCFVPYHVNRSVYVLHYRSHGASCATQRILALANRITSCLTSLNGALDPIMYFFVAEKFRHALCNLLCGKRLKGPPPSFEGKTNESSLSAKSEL

The experiment addresses T1, human GPR17 receptor (Homo sapiens, UniProt Q13304).
T1 construct: host or cells: HEK-293
The experiment is described as follows: Calcium mobilization functional assay (Fluo-8, FLIPR TETRA) in HEK-293 hGPR17 (Gα-q assay). As to conditions: antagonism of MDL29,951 (~EC80) induced Ca2+ signal; cell line (HEK-293 hGPR17 or HEK-293 Suchi5 hGPR17) not given. Type of experiment: cell-based. Summed up: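 Fluo-8-loaded HEK-293 hGPR17 cells (60 min dye loading, room temperature) were preincubated with compound for twenty minutes, then challenged with agonist MDL29,951 at ~EC80, 500 nM. Intracellular calcium release via Gα-q was recorded as FLIPR fluorescence for a further 2 minutes; compounds tested in duplicate.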
On to `COc1nc(C)ccc1NS(=O)(=O)c1c[nH]c(-c2ccccc2)c1` [Cpd 128, N-(2-methoxy-6-methyl-3-pyridyl)-5-phenyl-1H-pyrrole-3-sulfonamide], for which the IC50 is 5 to 50 µM.

With `Cc1ccnc(C)c1NS(=O)(=O)c1c[nH]c(-c2ccccc2)c1` [Cpd 129, N-(2,4-dimethyl-3-pyridyl)-5-phenyl-1H-pyrrole-3-sulfonamide], the 50% inhibitory concentration (IC50) lay in the range of 0.5 to 5 µM.

`COCCOc1ccc(NS(=O)(=O)c2c[nH]c(-c3ccccc3F)c2)c(F)c1` [Cpd 130, N-[2-fluoro-4-(2-methoxyethoxy)phenyl]-5-(2-fluorophenyl)-1H-pyrrole-3-sulfonamide]: the IC50 fell in the range of 5 to 50 µM.

As for `O=S(=O)(Nc1cc(F)c(F)cc1F)c1c[nH]c(-c2c(F)cccc2F)c1` [Cpd 131, 5-(2,6-difluorophenyl)-N-(2,4,5-trifluorophenyl)-1H-pyrrole-3-sulfonamide], the IC50 lay within 0.5 to 5 µM.

For `O=S(=O)(Nc1cc(F)c(C(F)(F)F)cc1F)c1c[nH]c(C2CCCC2)c1` [Cpd 132, 5-cyclopentyl-N-[2,5-difluoro-4-(trifluoromethyl)phenyl]-1H-pyrrole-3-sulfonamide], the IC50 was in the range of 0.5 to 5 µM.

On to `O=S(=O)(Nc1ncc(F)cc1F)c1c[nH]c(-c2ccccc2F)c1` [Cpd 133, N-(3,5-difluoro-2-pyridyl)-5-(2-fluorophenyl)-1H-pyrrole-3-sulfonamide], for which the IC50 was in the range of 5 to 50 µM.

Consider `COc1cc(Cl)cnc1NS(=O)(=O)c1c[nH]c(-c2ccccc2)c1` [Cpd 134, N-(5-chloro-3-methoxy-2-pyridyl)-5-phenyl-1H-pyrrole-3-sulfonamide], for which the IC50 was 0.5 to 5 µM.

With `Cc1nc(C(F)(F)F)ccc1NS(=O)(=O)c1c[nH]c(-c2ccccc2)c1` [Cpd 135, N-[2-methyl-6-(trifluoromethyl)-3-pyridyl]-5-phenyl-1H-pyrrole-3-sulfonamide], the IC50 was 0.5 to 5 µM.

On to `Cc1cnc(NS(=O)(=O)c2c[nH]c(-c3ccccc3)c2)c(F)c1` [Cpd 136, N-(3-fluoro-5-methyl-2-pyridyl)-5-phenyl-1H-pyrrole-3-sulfonamide], for which the IC50 was 0.5 to 5 µM.

Regarding `O=S(=O)(Nc1cc(F)c(F)cc1F)c1c[nH]c(-c2ccccc2)c1` [Cpd 137, 5-phenyl-N-(2,4,5-trifluorophenyl)-1H-pyrrole-3-sulfonamide], the IC50 lay in the range of 0.5 to 5 µM.

In the case of `O=S(=O)(Nc1ccc(C(F)(F)F)cn1)c1c[nH]c(-c2ccccc2)c1` [Cpd 138, 5-phenyl-N-[5-(trifluoromethyl)-2-pyridyl]-1H-pyrrole-3-sulfonamide], the IC50 lay within 5 to 50 µM.

On to `O=S(=O)(Nc1cc(C(F)(F)F)ccn1)c1c[nH]c(-c2ccccc2)c1` [Cpd 139, 5-phenyl-N-[4-(trifluoromethyl)-2-pyridyl]-1H-pyrrole-3-sulfonamide], for which the IC50 lay in the range of 0.5 to 5 µM.

As to `O=S(=O)(Nc1ncc(C(F)(F)F)cc1F)c1c[nH]c(-c2ccccc2)c1` [Cpd 140, N-[3-fluoro-5-(trifluoromethyl)-2-pyridyl]-5-phenyl-1H-pyrrole-3-sulfonamide], the IC50 was 0.5 to 5 µM.

As to `O=S(=O)(Nc1cccc2c1OC(F)(F)O2)c1c[nH]c(-c2ccccc2)c1` [Cpd 141, N-(2,2-difluoro-1,3-benzodioxol-4-yl)-5-phenyl-1H-pyrrole-3-sulfonamide], the IC50 lay in the range of 0.5 to 5 µM.

Consider `O=S(=O)(Nc1cnc(Cl)cc1F)c1c[nH]c(-c2ccccc2F)c1` [Cpd 142, N-(6-chloro-4-fluoro-3-pyridyl)-5-(2-fluorophenyl)-1H-pyrrole-3-sulfonamide], for which the IC50 is 0.5 to 5 µM.

In the case of `O=S(=O)(Nc1ccc(OC(F)(F)F)cc1F)c1c[nH]c(-c2ccccc2)c1` [Cpd 143, N-[2-fluoro-4-(trifluoromethoxy)phenyl]-5-phenyl-1H-pyrrole-3-sulfonamide], the concentration for half-maximal inhibition (IC50) lay within 0.5 to 5 µM.

For the compound `COc1cc(C(F)(F)F)ccc1NS(=O)(=O)c1c[nH]c(-c2ccccc2)c1` [Cpd 144, N-[2-methoxy-4-(trifluoromethyl)phenyl]-5-phenyl-1H-pyrrole-3-sulfonamide], the IC50 was in the range of 5 to 50 µM.
